Results as given in PMC12746157, “Light-Regulated Agonists Spatiotemporally Activating the Vitamin D Receptor Mitigate Psoriasis-like Inflammation in Mice without Inducing Hypercalcemia” (ACS Central Science, 2025).

How the values were obtained:
[1] = UV-Vis absorption spectra and thermal relaxation of the cis isomers in DMSO; format: physicochemical; conditions: 60 μM in 100% DMSO, 37 °C; for λn−π* (cis): after illumination; for λπ–π* (trans): dark
Description: The UV–vis absorbance spectra of all molecules were measured in the dark and after the application of light of different wavelengths ranging from 365 to 770 nm (Figure A and Figures S1–S3). […] Consequently, violet/UV light below 405 nm efficiently promoted photoisomerization, which produced a dramatic decrease in the π-π* band and a significant increase in the n-π* band at around 445 nm (Table ). […] The proportion of molecules at the PSS in trans isomer upon constant illumination with light at 525 nm and cis at 365 nm was in general above 50%, reaching a remarkable >99% for compound 11d (Table and Figures S4 and S5). […] The greater stability of the trans isomer was consistent with previous quantum mechanical and molecular mechanics predictions. Measuring the photoisomerization properties of compound PhotoVDRM allowed us to determine the photoisomerization quantum yields of the compound by solving a differential equation for photoisomerization. We used MATLAB to perform regression and arrive at the following photoisomerization quantum yields: ϕ365 nm (trans) = 0.0427, ϕ365 nm (cis) = 0.0501, ϕ470 nm (trans) = 0.1857, and ϕ470 nm (cis) = 0.2281 (Figure S9). Compound PhotoVDRM was also evaluated in aqueous buffer used for pharmacological experiments (0.5% DMSO) showing a thermal relaxation of 3 h, almost 7 times faster than in pure DMSO (Figure B). […] A deeper photocharacterization of PhotoVDRM allowed us to measure the kinetics of photoconversion upon constant illumination with two wavelengths and three light intensities (Figure D and Figure S10). […] Indeed, with LED devices producing light at intensities as low as 0.05 mW/mm^2 we were able to transform trans to cis in around 15.5 s. This time was reduced to 6 and 2 s when the light intensity was increased to 0.15 and 0.75 mW/mm^2. […] Therefore, we proceeded to test the ability of the chemical library to activate the VDR under different light conditions.
2. Photochemical characterization. […]
(§1) (200 µL per well). The absorption spectra were recorded from 300 to 600 nm with 2 nm fixed intervals using a Tecan Spark 20M Multimode microplate reader. Initial measurements were performed in the dark, followed by spectra acquired immediately after each 3 min period of light irradiation at different wavelengths using 96-well LED array plates (LEDA Teleopto). Theoretical absorbance spectra corresponding to the pure cis isomer (100%) of each compound were calculated in order to obtain the theoretical percentage of cis isomer at each wavelength, according to the method described by Ernst Fischer (1967). Thermal relaxation kinetics of the experimental cis isomers were assessed in quartz cuvettes (10 mm optical path) containing freshly prepared 50 […]
Dark state absorbance at 365 nm was recorded at 37
ºC using a ThermoFisher Evolution 350 UV-Vis spectrophotometer. Samples were then irradiated for 3 minutes at 365 nm with a CoolLED pE-4000 light sourceto induce trans → cis photoisomerization.. Absorbance at 365 nm was subsequently monitored over 48 h: every 15 min during the first 24 h, and every 60 min during the following 24 h. Relaxation half-lives were determined by fitting the absorbance-time data to a […] exponential model using GraphPad Prism v10.4.1. […]

[2] = Proportions of cis and trans at the photostationary state in DMSO from absorbance spectra (Ernst Fischer method); format: physicochemical
Description: 2. Photochemical characterization.
as §1, with “A 50 µM solution of each compound in DMSO was dispensed into a transparent 96-well plate (200” for “(200”, “(1967).” for “(1967). Thermal relaxation kinetics of the experimental cis isomers were assessed in quartz cuvettes (10 mm optical path) containing freshly prepared 50”
Table S6. Proportions of cis and trans at the photostationary state in DMSO. […]

SMILES | t 1/2 (thermal relaxation of cis) [1] [h] | λn−π* (cis) [1] [nm] | λπ–π* (trans) [1] [nm] | %cis at the photostationary state ([2]; 365 nm) | %trans at the photostationary state ([2]; 365 nm) | %cis at the photostationary state ([2]; 380 nm) | %trans at the photostationary state ([2]; 380 nm) | %cis at the photostationary state ([2]; 405 nm) | %trans at the photostationary state ([2]; 405 nm) | %cis at the photostationary state ([2]; 420 nm) | %trans at the photostationary state ([2]; 420 nm) | %cis at the photostationary state ([2]; 470 nm) | %trans at the photostationary state ([2]; 470 nm) | %cis at the photostationary state ([2]; 500 nm) | %trans at the photostationary state ([2]; 500 nm) | %cis at the photostationary state ([2]; 530 nm) | %trans at the photostationary state ([2]; 530 nm)
Cc1cc(OCC(O)C(C)(C)C)ccc1/N=N/c1cccc(-c2ccc(C(=O)O)cc2C)c1 (centres unmarked) [Compound 11d] | 17.7 | 444 | 362 | 96,79% | 3,21% | 95,58% | 4,42% | 61,42% | 38,58% | 54,69% | 45,31% | 28,11% | 71,89% | 29,74% | 70,26% | 25,59% | 74,41%
Cc1cc(/N=N/c2cccc(-c3ccc(CO)cc3)c2)ccc1OCC(O)C(C)(C)C (centres unmarked) [Compound 12a] | 9.1 | 444 | 364 | 97,06% | 2,94% | 95,61% | 4,39% | 63,64% | 36,36% | 60,45% | 39,55% | 33,06% | 66,94% | 34,03% | 65,97% | 30,20% | 69,80%
COC(=O)c1ccc(-c2cccc(/N=N/c3ccc(OCC(O)C(C)(C)C)cc3C)c2)c(C)c1 (centres unmarked) [Compound 10d] | 8.2 | 438 | 360 | 96,30% | 3,70% | 95,32% | 4,68% | 62,22% | 37,78% | 59,99% | 40,01% | 29,82% | 70,18% | 25,21% | 74,79% | 20,03% | 79,97%
COC(=O)c1ccc(-c2cccc(/N=N/c3ccc(OCC(O)C(C)(C)C)cc3C)c2)cc1 (centres unmarked) [Compound 10b] | 7.6 | 440 | 360 | 97,26% | 2,74% | 96,48% | 3,52% | 66,00% | 34,00% | 62,72% | 37,28% | 34,89% | 65,11% | 35,65% | 64,35% | 31,97% | 68,03%
